Source: BindingDB's records for doi:10.1021/jm9805081 (Warner-Lambert, 1999)

Target: T1, Prostaglandin G/H synthase 2 (Homo sapiens, UniProt P35354)
T1 sequence (P35354 whole entry): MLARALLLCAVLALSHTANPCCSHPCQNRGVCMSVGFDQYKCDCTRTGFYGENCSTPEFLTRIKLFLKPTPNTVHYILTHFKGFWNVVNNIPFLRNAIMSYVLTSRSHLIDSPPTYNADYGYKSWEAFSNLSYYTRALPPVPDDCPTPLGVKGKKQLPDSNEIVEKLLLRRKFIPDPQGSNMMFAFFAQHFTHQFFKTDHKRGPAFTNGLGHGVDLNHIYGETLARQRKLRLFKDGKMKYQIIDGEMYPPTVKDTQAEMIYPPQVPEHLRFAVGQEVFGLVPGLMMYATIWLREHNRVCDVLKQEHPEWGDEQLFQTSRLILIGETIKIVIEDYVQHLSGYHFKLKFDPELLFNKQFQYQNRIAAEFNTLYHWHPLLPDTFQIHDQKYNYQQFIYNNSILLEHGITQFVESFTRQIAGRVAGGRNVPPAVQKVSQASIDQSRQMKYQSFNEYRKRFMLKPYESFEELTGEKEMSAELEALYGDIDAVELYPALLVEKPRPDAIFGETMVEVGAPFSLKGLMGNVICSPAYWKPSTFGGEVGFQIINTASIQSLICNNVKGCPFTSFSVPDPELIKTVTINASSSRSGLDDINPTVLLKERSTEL
Assay: IC50 value against recombinant human Prostaglandin G/H synthase 2 at 10 uM; not active

CONC1=NC(=O)C(=Cc2cc(C(C)(C)C)c(O)c(C(C)(C)C)c2)O1 [5-[1-(3,5-Di-tert-butyl-4-hydroxy-phenyl)-meth-(Z)-ylidene]-2-methoxyamino-oxazol-4-one]
IC50: > 10 µM
